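Assay format: 96-well plates, 48-hour exposure. TGI is the concentration that stops growth completely.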
What was measured:
Assay in all cases: DTP human tumour cell line panel, 48 h
[1] = tested on: 786-0 renal
[2] = tested on: A498 renal
[3] = tested on: A549 NSCLC
[4] = tested on: ACHN renal
[5] = tested on: BT-549 breast
[6] = tested on: CAKI-1 renal
[7] = tested on: CCRF-CEM leukemia
[8] = tested on: COLO 205 colon
[9] = tested on: DU-145 prostate
[10] = tested on: EKVX NSCLC
[11] = tested on: HCC-2998 colon
[12] = tested on: HCT-116 colon
[13] = tested on: HCT-15 colon
[14] = tested on: HL-60(TB) leukemia
[15] = tested on: HOP-62 NSCLC
[16] = tested on: HOP-92 NSCLC
[17] = tested on: HS 578T breast
[18] = tested on: HT29 colon
[19] = tested on: IGROV1 ovarian
[20] = tested on: K-562 leukemia
[21] = tested on: KM12 colon
[22] = tested on: LOX IMVI melanoma
[23] = tested on: M14 melanoma
[24] = tested on: MALME-3M melanoma
[25] = tested on: MCF7 breast
[26] = tested on: MDA-MB-231 breast
[27] = tested on: MDA-MB-435
[28] = tested on: MDA-N
[29] = tested on: MOLT-4 leukemia
[30] = tested on: NCI-H226 lung
[31] = tested on: NCI-H23 lung
[32] = tested on: NCI-H460 lung
[33] = tested on: NCI-H522 lung
[34] = tested on: NCI/ADR-RES ovarian
[35] = tested on: OVCAR-3 ovarian
[36] = tested on: OVCAR-4 ovarian
[37] = tested on: OVCAR-5 ovarian
[38] = tested on: OVCAR-8 ovarian
[39] = tested on: PC-3 prostate
[40] = tested on: RPMI-8226 leukemia
[41] = tested on: RXF 393 renal
[42] = tested on: SF-268 CNS
[43] = tested on: SF-295 CNS
[44] = tested on: SF-539 CNS
[45] = tested on: SK-MEL-2 melanoma
[46] = tested on: SK-MEL-28 melanoma
[47] = tested on: SK-MEL-5 melanoma
[48] = tested on: SK-OV-3 ovarian
[49] = tested on: SN12C renal
[50] = tested on: SNB-19 CNS
[51] = tested on: SNB-75 CNS
[52] = tested on: SR leukemia
[53] = tested on: SW-620 colon
[54] = tested on: T-47D breast
[55] = tested on: TK-10 renal
[56] = tested on: U251 CNS
[57] = tested on: UACC-257 melanoma
[58] = tested on: UACC-62 melanoma
[59] = tested on: UO-31 renal

Measured: TGI

C/C=C/[C@@H](C(=O)OC)N1C(=O)c2ccccc2[C@H]1O
> 100 µM: all assays above

CCOC(=O)/C(SC#N)=C(/N)N1CCCC1
> 100 µM: all assays above

— PubChem BioAssay (NCI)
